The source of these data is ChEMBL document CHEMBL1127353, “Nonpeptidic inhibitors of human leukocyte elastase. 2. Design, synthesis, and in vitro activity of a series of 3-amino-6-arylopyridin-2-one trifluoromethyl ketones” (J Med Chem, 1994).

In this experiment the target is T1, Neutrophil elastase (Homo sapiens, UniProt P08246).
T1 sequence (P08246 whole entry): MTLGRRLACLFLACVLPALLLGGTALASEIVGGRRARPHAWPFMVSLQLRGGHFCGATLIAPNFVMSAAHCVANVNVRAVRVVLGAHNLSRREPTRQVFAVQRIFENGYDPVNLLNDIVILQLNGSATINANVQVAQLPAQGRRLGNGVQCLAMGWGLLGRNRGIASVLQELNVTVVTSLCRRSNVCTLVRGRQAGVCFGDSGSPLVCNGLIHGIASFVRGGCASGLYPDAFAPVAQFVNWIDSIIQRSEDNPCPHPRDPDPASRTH
Put plainly: Tested for inhibitory activity against human leukocyte elastase(HLE) enzyme.
`CC(C)C(NC(=O)Cn1c(Cc2ccccc2)ccc(NC(=O)OCc2ccccc2)c1=O)C(=O)C(F)(F)F` (stereo not drawn) gave an inhibition constant (Ki) of 66 nM.
`CC(C)C(NC(=O)Cn1c(-c2cccc(OC(C)(C)C)c2)ccc(NC(=O)OCc2ccccc2)c1=O)C(=O)C(F)(F)F` (stereo not drawn) registered an inhibition constant (Ki) of 4.4 nM.
Then `CC(C)C(NC(=O)Cn1c(-c2ccc(Cl)cc2)ccc(NC(=O)OCc2ccccc2)c1=O)C(=O)C(F)(F)F` (stereo not drawn), with 6.6 nM.
Under `CC(C)C(NC(=O)Cn1ccc(-c2ccccc2)c(NC(=O)OCc2ccccc2)c1=O)C(=O)C(F)(F)F` (stereo not drawn) stands 320 nM; under `CC(C)C(NC(=O)Cn1c(-c2cccc(C(=O)O)c2)ccc(NC(=O)OCc2ccccc2)c1=O)C(=O)C(F)(F)F` (stereo not drawn), 32 nM.
Then `CC(C)C(NC(=O)Cn1c(-c2cccnc2)ccc(NC(=O)OCc2ccccc2)c1=O)C(=O)C(F)(F)F` (stereo not drawn), with 9.1 nM; and `Cc1ccc(-c2ccc(NC(=O)OCc3ccccc3)c(=O)n2CC(=O)NC(C(=O)C(F)(F)F)C(C)C)cc1` (stereo not drawn), with 31 nM.
`CC(C)C(NC(=O)Cn1c(-c2ccccc2Cl)ccc(NC(=O)OCc2ccccc2)c1=O)C(=O)C(F)(F)F` (stereo not drawn) yielded a Ki of 11 nM.

For orientation: Ki means a dissociation constant, usually derived from enzyme kinetics or from competition with a known ligand.
